Data as given in ChEMBL document CHEMBL1201862, “PubChem BioAssay data set” (2004).
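Cultured in 96-well plates, cells were exposed to test compound for 48 hours across five concentrations. GI50 = concentration required for 50% inhibition of growth.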 Activity calls are given as the source filed them. Rule as the data show it: active = GI50 up to about 1.1 µM and inactive = higher.

Tests used:
Assay in all cases: DTP human tumour cell line panel, 48 h
MCF7 = system: MCF7
NCI/ADR-RES = system: NCI/ADR-RES
NCI-H460 = system: NCI-H460
XF498 = system: XF498
HOP-92 = system: HOP-92
MOLT-4 = system: MOLT-4
UACC-62 = system: UACC-62
A498 = system: A498
KM12 = system: KM12
MDA-MB-435 = system: MDA-MB-435
DU-145 = system: DU-145
T47D = system: T47D
MDA-N = system: MDA-N
MDA-MB-231 = system: MDA-MB-231
Hs-578T = system: Hs-578T
M14 = system: M14
BT-549 = system: BT-549
PC-3 = system: PC-3
SK-MEL-28 = system: SK-MEL-28

Measured: GI50

CCCSc1nc(COC(=O)NC)c(COC(=O)NC)n1C
inactive: MCF7 47.6 µM | NCI/ADR-RES > 100 µM | NCI-H460 54.7 µM | XF498 > 100 µM | HOP-92 > 71 µM | MOLT-4 27.7 µM | UACC-62 > 100 µM | A498 > 62.7 µM | KM12 > 100 µM

CN(/N=C/c1cccc2cccnc12)c1ccc([N+](=O)[O-])cc1[N+](=O)[O-]
inactive: MDA-MB-435 > 100 µM | DU-145 65.5 µM | MCF7 40.8 µM | NCI/ADR-RES 39.8 µM | T47D 23.1 µM | MDA-N > 100 µM | NCI-H460 46 µM | XF498 6.01 µM | MDA-MB-231 23.1 µM | HOP-92 14.8 µM | Hs-578T 9.71 µM | MOLT-4 > 100 µM | UACC-62 25.1 µM | M14 54.7 µM | BT-549 21.3 µM | PC-3 55 µM | SK-MEL-28 > 88.1 µM | A498 17.4 µM | KM12 > 100 µM
